Here are results for 1 compound from publication PMC3578935, “Biochemical Characterization of CTX-M-15 from Enterobacter cloacae and Designing a Novel Non-β-Lactam-β-Lactamase Inhibitor” (PLoS ONE, 2013).

The subject of assay [1] is E. coli DH5α transformed with recombinant bla CTX-M-15 (pQE-2-CTX-M-15). In words: MIC by micro-dilution, β-lactams alone or with inhibitors. It is filed as cell-based. The method, then:
E. coli DH5α and E. coli BL21 (DE3) were used for cloning and protein expression experiments, respectively. MICs were determined on E. coli DH5α transformed with cloned CTX-M-15 from Enterobacter cloacae clinical strain EC-15.
The MICs for various antibiotics alone or in combination with various inhibitors (clavulanic acid, sulbactam, tazobactam and ZINC03787097) were determined by micro-dilution method and the results were interpreted according to Clinical Laboratory Standards Institute (CLSI) guidelines. Briefly, E. coli DH5α cells transformed with CTX-M-15 was treated with increasing concentrations of the antibiotics ranging from 0.5 to 2000 µg/ml in a series of two fold dilutions. The inhibitors clavulanic acid, sulbactam and tazobactam were used at a fixed concentration of 4 µg/ml, while ZINC03787097 was used at 20 µg/ml.

For assay [2], the target named is T1, CTX-M-15 (Escherichia coli, UniProt Q9EXV5). In words: Enzyme inhibition kinetics (acylation/deacylation, competition with nitrocefin). Particulars: K i, determined at steady-state, competition with 100 µM nitrocefin.
Description: The parameters k +2, k +3 and K′ are the first-order acylation and deacylation constants, and the dissociation constant of the Henri-Michaelis complex, respectively.
where, v o, v t and v ss are the rates of utilization of the reporter substrate at times 0 and t, and after the steady-state has been established, respectively.
The individual parameters, k +2, k +3 and K′, were derived from the dependence of k i upon inhibitor concentration, [C], on the basis of the following equation: [drawing 10]
When the concentration of inhibitor [C] is well below K′, k i varies linearly the above equations is simplified as: [drawing 11]
The k +2/K′ value is then obtained from the slope of the line, whereas k +3 is given by the intercept at [C] = 0. Conversely, if [C] is much larger than K′ (K m+[S])/K m, then k i = k +2+k +3, and is independent of [C]
In assay [3] the target is T1, CTX-M-15. In words: IC50 determination, nitrocefin hydrolysis after 5 min pre-incubation. The assay is classed as biochemical, Enterobacter cloacae. On the set-up: His tag (inferred from the pQE-2 vector and Ni-NTA purification); made in house; host or cells: E. coli BL21 (DE3). Particulars: IC50, 5 min pre-incubation at 30°C; 100 µM nitrocefin. The method, then:
The 50% inhibitory concentration (IC50) was determined as the concentration of the inhibitor that inhibited hydrolytic activity of the enzyme by 50%.

Assay [4] concerns the target T1, CTX-M-15. The assay is classed as biochemical, Enterobacter cloacae. Set-up: His tag (inferred from the pQE-2 vector and Ni-NTA purification); made in house; host or cells: E. coli BL21 (DE3). Particulars: for K m for nitrocefin hydrolysis in the presence of inhibitor: 0.50 nM CTX-M-15.
The target in assay [5] is T1, CTX-M-15. In words: Stability of ZINC03787097 in the presence of CTX-M-15 (UV absorbance). It is filed as biochemical, Enterobacter cloacae. On the set-up: His tag (inferred from the pQE-2 vector and Ni-NTA purification); made in house; host or cells: E. coli BL21 (DE3). Particulars: 100 µM inhibitor, 10 nM CTX-M-15, 3600 seconds, absorbance at 283 nm and 222 nm. The method, then: The UV absorption spectrum (320-210 nm) of ZINC03787097 (100 µM) alone or after 3600 seconds incubation with CTX-M-15 (10 nM) was measured in 50 mM phosphate buffer, pH 7.0 at 30°C on Shimadzu UV-VIS spectrophotometer (UV-1800). The stability of ZINC03787097 in the presence of CTX-M-15 was monitored by measuring the absorbance for 3600 seconds at 283 nm and 222 nm.

“Also recorded” adds a separate entry of the source. Read-outs that look alike come from different tables or passages of the source.

In the case of `CC#CCC(C)C(O)C=CC1C(O)CC2Oc3c(CCCC(=O)O)cccc3C21` (stereo not shown) [ZINC03787097], the “fold lowering of MIC of cefotaxime in combination with inhibitor” value in assay [1] (DH5α transformed with bla CTX-M-15) is reported as 2 fold. Also, the “effect on MICs of antibiotics of cephalosporin group” value in assay [1] (ZINC03787097 at 20 µg/ml) is listed as “reduced in the presence of ZINC03787097 to a level observed in the case of antibiotic-sulbactam combination”. For the same compound, the Ki at CTX-M-15 [2] amounted to 388 nM. On CTX-M-15 [3], this compound came in with an IC50 of 180 nM. Moreover, the “K m for nitrocefin hydrolysis in the presence of inhibitor” value on CTX-M-15 [4] (0.25 µM ZINC03787097) is given as 67 µM; at CTX-M-15 [4] (0.50 µM ZINC03787097), 94 µM; on CTX-M-15 [4] (0.75 µM ZINC03787097) it was 96 µM. Moreover, the mode of inhibition entry on CTX-M-15 [4] (Lineweaver-Burg plot) was “reversible inhibitor; also recorded: competitive inhibition”. Moreover, on CTX-M-15 [4] (similar at 0.00-0.75 µM ZINC03787097), the “Vmax of nitrocefin hydrolysis” value is 3.22e-07 M/s. At CTX-M-15 [5], the “hydrolysis of inhibitor by CTX-M-15” value is on record as “no detectable hydrolysis; also recorded: negligible hydrolysis”.

As a reminder, the Ki is a dissociation constant, usually derived from enzyme kinetics or from competition with a known ligand. A word on the IC50: it is the concentration needed to halve the response being measured.
